Here are results for 13 molecules from patent publication US10973906B2, “Therapeutic peptides and vaccines” (priority 2005, dated 2021).

To fix the notation:
B1: MIP-1β: CCR5 selective chemokine ligand (protein)
chain: APMGSDPPTACCFSYTARKLPRNFVVDYYETSSLCSQPAVVFQTKRSKQVCADPSESWVQEYVYDLELN

A word on the EC50: it is the concentration needed to bring the measured effect to its halfway point. Lower therefore signals a more potent agent.

Where a SMILES comes first, the peptide text is derived from it.

In the first assay the target is T1, CCR5 (Homo sapiens, UniProt P51681).
T1 construct: expressed in transfected cells; host or cells: ChfTh-CCR5 expressing cells (so in the source)
T1 sequence (P51681 whole entry): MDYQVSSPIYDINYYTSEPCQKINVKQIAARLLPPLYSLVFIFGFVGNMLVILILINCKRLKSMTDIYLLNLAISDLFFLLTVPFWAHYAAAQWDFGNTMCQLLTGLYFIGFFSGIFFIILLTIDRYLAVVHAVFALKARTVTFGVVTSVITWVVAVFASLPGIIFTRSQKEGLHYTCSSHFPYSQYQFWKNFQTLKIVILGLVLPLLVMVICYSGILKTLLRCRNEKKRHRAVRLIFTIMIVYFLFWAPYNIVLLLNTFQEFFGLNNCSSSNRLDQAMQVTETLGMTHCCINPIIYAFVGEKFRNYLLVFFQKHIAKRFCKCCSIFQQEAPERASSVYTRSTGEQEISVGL
In words: biochemical. The class given is binding.
Settings: not given
Here is the method: (§1) The antiviral assays are described in detail in the prior art (Ruff et al., 2001, Antiviral Res, 52, 63-75), which is hereby incorporated by reference, and will be here described only briefly.
(§2) We prepared a novel FITC-labeled tracer from soluble gp120 proteins (25 μg/ml) using a Fluorescent Protein labeling kit (Roche Diagnostics GmBh). Binding assays were performed in binding buffer containing 50mM HEPES (Gibco), pH=7.4, 5 mM MgCl2, 1 mM CaCl2.6H20 (Sigma), 5% BSA (Sigma) and 0.1% NaN3, final volume 100 μl. Binding was carried out for 1 h at 37° C. in 96-well filter plates (Millipore) using several CCR5 expressing lines, as indicated. Unbound labeled proteins were removed by rapid vacuum filtration and washing using a 96-well plate manifold. Filters were counted with a fluorescent plate reader (Hewlett Packard) at 495/530 nm. Non-specific binding was determined in the absence of sCD4 and was subtracted from the gp120-FITC binding in presence of 100 nM sCD4 (total binding).
Consider `N=C(N)NCCC[C@H](NC(=O)[C@H](Cc1ccc(O)cc1)NC(=O)[C@H](CCCNC(=N)N)NC(=O)[C@H](CC(N)=O)NC(=O)[C@@H](N)CC(N)=O)C(=O)O` [NNRYR] (H-NNRYR-OH), for which a half-maximal effect (EC50) was put at 0.2 nM.
On the same count and under the same terms, for `N=C(N)NCCC[C@H](NC(=O)[C@H](Cc1ccc(O)cc1)NC(=O)[C@H](CCC(=O)O)NC(=O)[C@H](CO)NC(=O)[C@@H](N)CC(N)=O)C(=O)O` [NSEYR] (H-NSEYR-OH) the value was 0.08 nM; for `NC(=O)C[C@H](NC(=O)[C@H](CO)NC(=O)[C@@H](N)CC(N)=O)C(=O)N[C@@H](Cc1ccc(O)cc1)C(=O)N[C@@H](CO)C(=O)O` [NSNYS] (H-NSNYS-OH), 0.5 nM.
Still for that read-out and setting: for `N=C(N)NCCC[C@H](NC(=O)[C@H](Cc1ccc(O)cc1)NC(=O)[C@H](CO)NC(=O)[C@H](CO)NC(=O)[C@@H](N)CC(N)=O)C(=O)O` [NSSYR] (H-NSSYR-OH) the value was 0.04 nM; for `C[C@@H](O)[C@H](NC(=O)[C@H](Cc1ccc(O)cc1)NC(=O)[C@H](CO)NC(=O)[C@H](CO)NC(=O)[C@@H](N)CC(N)=O)C(=O)O` [NSSYT] (H-NSSYT-OH), 0.2 nM.
`C[C@@H](O)[C@H](NC(=O)[C@@H](N)CC(N)=O)C(=O)N[C@@H](CO)C(=O)N[C@@H](Cc1ccc(O)cc1)C(=O)N[C@@H](CCCNC(=N)N)C(=O)O` [NTSYR] (H-NTSYR-OH): the midpoint of the response, the EC50, lay at 0.1 nM.
On to `N=C(N)NCCC[C@H](NC(=O)[C@H](Cc1ccc(O)cc1)NC(=O)[C@H](CCC(=O)O)NC(=O)[C@H](CO)NC(=O)[C@@H](N)CO)C(=O)O` [SSEYR] (H-SSEYR-OH), for which the midpoint of the response, the EC50, lay at 0.3 nM.
The same measure, in the same setting: for `CC[C@H](C)[C@H](NC(=O)[C@@H](N)[C@@H](C)O)C(=O)N[C@@H](CO)C(=O)N[C@@H](Cc1ccc(O)cc1)C(=O)N[C@@H](CCCNC(=N)N)C(=O)O` [TISYR] (H-TISYR-OH) the value was 0.4 nM; for `C[C@@H](O)[C@H](N)C(=O)N[C@@H](CO)C(=O)N[C@@H](CC(N)=O)C(=O)N[C@@H](Cc1ccc(O)cc1)C(=O)N[C@@H](CO)C(=O)O` [TSNYS] (H-TSNYS-OH), 0.2 nM.
Still for that read-out and setting: for `C[C@@H](O)[C@H](N)C(=O)N[C@H](C(=O)N[C@@H](CO)C(=O)N[C@@H](Cc1ccc(O)cc1)C(=O)N[C@@H](CCCNC(=N)N)C(=O)O)[C@@H](C)O` [TTSYR] (H-TTSYR-OH) the value was 0.1 nM; for `C[C@@H](O)[C@H](N)C(=O)N[C@H](C(=O)N[C@@H](CO)C(=O)N[C@@H](Cc1ccc(O)cc1)C(=O)N[C@H](C(=O)O)[C@@H](C)O)[C@@H](C)O` [TTSYT] (H-TTSYT-OH), 0.05 nM; for `N=C(N)NCCC[C@H](NC(=O)[C@H](Cc1ccc(O)cc1)NC(=O)[C@H](CO)NC(=O)[C@H](CO)NC(=O)[C@@H](N)Cc1ccc(O)cc1)C(=O)O` [YSSYR] (H-YSSYR-OH), 0.6 nM.

For the next assay, the target named is T1, CCR5.
Test: not given
In kind it is binding. The note with it: 10 nM. Here is the method:
as §1, §2
These studies are illustrated in FIG. 4. Total specific binding was defined as the difference in binding of FITIC-gp120 with or without added sCD4 (100 nM).
Data shown (panels A-C) are the mean and […] of three experiments, each with triplicate determinations. Analyses were performed by PRISM.
For B1, the “inhibition of binding of gp120 proteins Bal and CM235” value is given as “inhibited”.

The assay is the same for the next values; noted with them: gp120BaL/sCD4, Cf2Th/synR5 cells.
In the case of B1, the “inhibition of binding of gp120BaL/sCD4 to CCR5” value is “completely inhibited”.
